# US8003704B2, “Methods and compositions for the treatment of alcoholism and alcohol dependence” (priority 2000, dated 2011)
# Columns and labels:
# Type in all cases: biochemical
# [1] = test system: AlDH of bacterial sources; test: Screening of tryptophan metabolites for inhibition of bacterial AlDH activity in vitro; settings: for % inhibition of AlDH activity: 100 μM concentration, in vitro
# Method: Tryptophan and its various metabolites were tested for possible inhibition of activity of AlDH of bacterial sources. The terms “inhibitor of AlDH activity” and the like mean that the activity of AlDH in vivo in the presence of the inhibitor is reduced. In practice, this may be predicted by reference to the inhibitory activity of the compound or composition in vitro.
# An enzyme preparation was purchased from Sigma, (Poole, Dorset, UK) and was used for the screening of tryptophan and its metabolites. A number of preliminary experiments were performed to optimise the conditions of the assay, which was performed according to standard experimental conditions published in the literature and well known to those skilled in the art. All assays were performed in triplicate or quadruplicate determinations for both controls (no additions) and tryptophan metabolites.
# Tryptophan and its metabolites were first tested at a 100 μM concentration. The tryptophan metabolites screened included the following: […]
# [2] = biological target: T1, low Km AlDH from rat liver (Rattus norvegicus, UniProt P11884); test: Inhibition of mammalian mitochondrial (low Km) AlDH in rat liver preparation; settings: Example 3, preliminary results, 2 μM concentration
# T1 construct: using a preparation from rat liver containing both Low Km and high Km AlDH; from tissue; host or cells: rat liver preparation
# T1 sequence (P11884 20-519): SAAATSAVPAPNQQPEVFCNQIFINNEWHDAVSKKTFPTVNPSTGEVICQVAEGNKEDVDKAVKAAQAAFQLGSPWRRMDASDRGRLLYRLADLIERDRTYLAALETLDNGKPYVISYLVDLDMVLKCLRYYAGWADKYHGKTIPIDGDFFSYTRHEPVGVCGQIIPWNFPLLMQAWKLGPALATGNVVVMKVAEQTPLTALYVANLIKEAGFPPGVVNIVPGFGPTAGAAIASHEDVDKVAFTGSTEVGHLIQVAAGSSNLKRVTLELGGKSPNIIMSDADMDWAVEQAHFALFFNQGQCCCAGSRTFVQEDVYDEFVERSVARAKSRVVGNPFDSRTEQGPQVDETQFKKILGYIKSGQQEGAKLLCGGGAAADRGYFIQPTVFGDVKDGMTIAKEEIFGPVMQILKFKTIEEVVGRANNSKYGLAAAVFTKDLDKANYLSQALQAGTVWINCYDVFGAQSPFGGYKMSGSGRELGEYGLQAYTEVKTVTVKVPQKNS
# [3] = biological target: T1, low Km AlDH from rat liver; test: as above; settings: Example 4, rat liver low Km AlDH, 5 μM acetaldehyde
# Method: Experiments were therefore performed using a preparation from rat liver in which both the low Km and the high Km enzymes can be measured simultaneously, but at different substrate (acetaldehyde) concentrations, namely, 5 μM for the low Km and 5 mM for the high Km, enzyme.
compound,measurement,setting,value
Nc1c(O)cccc1C(=O)O [3-hydroxyanthranilic acid],inhibition of bacterial AlDH activity,[1]; 2 μM concentration,3%
same,inhibition of bacterial AlDH activity,[1]; 10 μM concentration,17%
same,% inhibition of AlDH activity,[1],97%
same,inhibition of the mammalian low km enzyme,[2],46%
same,inhibition of activity of the low Km enzyme,[3]; 2 μM concentration,46%
same,inhibition of activity of the low Km enzyme,[3]; 10 μM concentration,54%
same,inhibition of activity of the low Km enzyme,[3]; 100 μM concentration,76%
Nc1c(O)cccc1C(=O)CC(N)C(=O)O (stereo not drawn) [3-hydroxykynurenine],inhibition of bacterial AlDH activity,[1]; 2 μM concentration,+1%
same,inhibition of bacterial AlDH activity,[1]; 10 μM concentration,55%
same,% inhibition of AlDH activity,[1],97%
same,inhibition of the mammalian low km enzyme,[2],65%
same,inhibition of activity of the low Km enzyme,[3]; 2 μM concentration,55%
same,inhibition of activity of the low Km enzyme,[3]; 10 μM concentration,52%
same,inhibition of activity of the low Km enzyme,[3]; 100 μM concentration,69%
O=C(O)Cc1c[nH]c2ccc(O)cc12 [5-hydroxyindol-3-ylacetic acid],% inhibition of AlDH activity,[1],4%
NCCc1c[nH]c2ccc(O)cc12 [5-hydroxytryptamine],% inhibition of AlDH activity,[1],15%
OCCc1c[nH]c2ccc(O)cc12 [5-hydroxytryptophol],% inhibition of AlDH activity,[1],7%
N[C@@H](Cc1c[nH]c2ccc(O)cc12)C(=O)O [5-hydroxytrytophan],% inhibition of AlDH activity,[1],23%
Nc1ccccc1C(=O)O [anthranilic acid],% inhibition of AlDH activity,[1],9%
"CCN(CC)C(=S)SSC(=S)N(CC)CC [disulfiram, reference compound]",inhibition of the mammalian low km enzyme,[2],30-46%
same,inhibition of activity of the low Km enzyme,[3]; 2 μM concentration,30-46%
same,inhibition of activity of the low Km enzyme,[3]; 10 μM concentration,38-43%
same,inhibition of activity of the low Km enzyme,[3]; 100 μM concentration,46-50%
O=CCc1c[nH]c2ccccc12 [indol-3-ylacetaldehyde],% inhibition of AlDH activity,[1],55%
O=C(O)Cc1c[nH]c2ccccc12 [indol-3-ylacetic acid],% inhibition of AlDH activity,[1],11%
O=C(O)C(=O)Cc1c[nH]c2ccccc12 [indol-3-ylpyruvic acid],inhibition of bacterial AlDH activity,[1]; 2 μM concentration,24%
same,inhibition of bacterial AlDH activity,[1]; 10 μM concentration,29%
same,% inhibition of AlDH activity,[1],94%
same,inhibition of the mammalian low km enzyme,[2],37%
same,inhibition of activity of the low Km enzyme,[3]; 2 μM concentration,30%
same,inhibition of activity of the low Km enzyme,[3]; 10 μM concentration,38%
same,inhibition of activity of the low Km enzyme,[3]; 100 μM concentration,53%
O=C(O)c1cc(=O)c2ccccc2[nH]1 [kynurenic acid],inhibition of bacterial AlDH activity,[1]; 2 μM concentration,5%
same,inhibition of bacterial AlDH activity,[1]; 10 μM concentration,30%
same,% inhibition of AlDH activity,[1],90%
same,inhibition of the mammalian low km enzyme,[2],30%
same,inhibition of activity of the low Km enzyme,[3]; 2 μM concentration,40%
same,inhibition of activity of the low Km enzyme,[3]; 10 μM concentration,43%
same,inhibition of activity of the low Km enzyme,[3]; 100 μM concentration,43%
Nc1ccccc1C(=O)CC(N)C(=O)O (stereo not drawn) [kynurenine],% inhibition of AlDH activity,[1],24%
NC(=O)c1cccnc1 [nicotinamide],% inhibition of AlDH activity,[1],7%
c1ccc2c(c1)[nH]c1cnccc12 [norharman],% inhibition of AlDH activity,[1],23%
O=C(O)c1ccc2ccccc2n1 [quinaldic acid],% inhibition of AlDH activity,[1],7%
O=C(O)c1cccnc1C(=O)O [quinolinic acid],% inhibition of AlDH activity,[1],13%
NCCc1c[nH]c2ccccc12 [tryptamine],% inhibition of AlDH activity,[1],0%
N[C@@H](Cc1c[nH]c2ccccc12)C(=O)O [tryptophan],% inhibition of AlDH activity,[1],2%
O=C(O)c1cc(O)c2cccc(O)c2n1 [xanthurenic acid],% inhibition of AlDH activity,[1],56%
O=C(O)CCCC(=O)C(=O)O [α-ketoadipic acid],% inhibition of AlDH activity,[1],1%
